Test results: article PMC2902569 (Nature biotechnology, 2010)

Target: T1, Met30 (Saccharomyces cerevisiae, UniProt P39014)
T1 sequence (P39014 1-640): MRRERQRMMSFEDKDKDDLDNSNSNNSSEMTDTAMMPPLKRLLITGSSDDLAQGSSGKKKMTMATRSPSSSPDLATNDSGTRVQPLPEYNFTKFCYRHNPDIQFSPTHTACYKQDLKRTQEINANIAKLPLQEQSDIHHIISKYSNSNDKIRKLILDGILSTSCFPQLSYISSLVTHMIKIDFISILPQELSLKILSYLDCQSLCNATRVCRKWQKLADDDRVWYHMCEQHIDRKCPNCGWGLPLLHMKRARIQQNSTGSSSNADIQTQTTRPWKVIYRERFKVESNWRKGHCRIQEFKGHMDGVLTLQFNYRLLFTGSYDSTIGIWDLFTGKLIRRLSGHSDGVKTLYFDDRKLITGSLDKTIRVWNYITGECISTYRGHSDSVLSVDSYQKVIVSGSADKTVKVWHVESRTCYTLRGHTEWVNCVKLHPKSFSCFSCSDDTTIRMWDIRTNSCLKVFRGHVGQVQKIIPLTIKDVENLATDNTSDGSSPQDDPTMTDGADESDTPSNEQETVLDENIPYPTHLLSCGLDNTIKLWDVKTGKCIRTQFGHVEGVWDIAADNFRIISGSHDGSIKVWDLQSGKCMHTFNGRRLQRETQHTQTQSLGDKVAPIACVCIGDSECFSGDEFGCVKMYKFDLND
Assay: DARTS, thermolysin or subtilisin protection, immunoblot
Assay type: biochemical
Details: yeast lysate (Skp1 present); also in vitro translated Met30

SMILES: O=C1c2ccccc2-c2nc3nonc3nc21 [SMER3]
- DARTS, thermolysin or subtilisin protection, immunoblot: we observed SMER3-dependent protection of Met30
